Assay results published in paper PMC9958262, “Endocannabinoids enhance hKV7.1/KCNE1 channel function and shorten the cardiac action potential and QT interval” (eBioMedicine, 2023).

Tests used:
Type in all cases: cell-based
[1] = molecular target: T1, hKV7.1/KCNE1 (KV7.1) (Homo sapiens, UniProt P51787); assay: two-electrode voltage clamp in Xenopus oocytes, V50 shift at […]
T1 construct: gene KCNQ1; with KCNE1

[2] = molecular target: T1, hKV7.1/KCNE1 (KV7.1); assay: two-electrode voltage clamp in Xenopus oocytes, V50 shift
[3] = molecular target: T1, hKV7.1/KCNE1 (KV7.1); assay: two-electrode voltage clamp in Xenopus oocytes, V50 shift at […] (moderate effect)
[4] = molecular target: T1, hKV7.1/KCNE1 (KV7.1); assay: two-electrode voltage clamp in Xenopus oocytes, V50 shift (current amplitude EC50 […]); site mutagenesis supported by MD
[5] = molecular target: T1, hKV7.1/KCNE1 (KV7.1); assay: two-electrode voltage clamp in Xenopus oocytes, V50 shift; mutagenesis (R228Q abolishes V50 shift); also active on KV7.[…] alone (EC50 […])

T1 sequence (P51787 whole entry): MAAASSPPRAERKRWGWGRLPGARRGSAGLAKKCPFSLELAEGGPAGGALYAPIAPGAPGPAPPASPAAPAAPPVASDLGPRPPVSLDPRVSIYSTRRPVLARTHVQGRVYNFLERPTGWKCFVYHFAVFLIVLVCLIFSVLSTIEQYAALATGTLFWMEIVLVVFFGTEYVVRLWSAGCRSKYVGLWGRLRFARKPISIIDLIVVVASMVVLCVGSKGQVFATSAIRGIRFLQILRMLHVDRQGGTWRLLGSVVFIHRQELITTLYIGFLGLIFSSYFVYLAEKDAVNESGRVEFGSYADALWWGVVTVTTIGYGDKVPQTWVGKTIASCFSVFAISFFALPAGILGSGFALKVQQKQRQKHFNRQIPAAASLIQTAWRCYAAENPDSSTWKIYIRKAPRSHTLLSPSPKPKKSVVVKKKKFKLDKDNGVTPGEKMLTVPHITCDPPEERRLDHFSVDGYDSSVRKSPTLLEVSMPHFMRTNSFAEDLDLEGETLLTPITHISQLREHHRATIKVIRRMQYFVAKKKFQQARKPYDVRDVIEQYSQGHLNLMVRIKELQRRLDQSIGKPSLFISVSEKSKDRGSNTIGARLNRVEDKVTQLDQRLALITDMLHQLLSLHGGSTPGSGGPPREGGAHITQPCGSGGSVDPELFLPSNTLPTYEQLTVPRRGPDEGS

CCCCC/C=C\C/C=C\C/C=C\C/C=C\CCCC(=O)N[C@H](CO)C(=O)O [ARA-D-S]
ΔV50 (mV) [1]: −29.0 mV

CC/C=C\C/C=C\C/C=C\C/C=C\C/C=C\C/C=C\CCC(=O)NC(CO)C(=O)O (stereo not shown) [DOC-S]
EC50 [2]: 5 µM

CCCCC/C=C\C/C=C\C/C=C\C/C=C\CCCC(=O)N[C@@H](C)C(=O)O [NALA]
ΔV50 (mV) [1]: −22.2 mV

CCCCC/C=C\C/C=C\C/C=C\C/C=C\CCCC(=O)NCCCC(=O)O [NAGABA]
ΔV50 (mV) [3]: −6.7 mV

CCCCC/C=C\C/C=C\CCCCCCCC(=O)NC(CO)C(=O)O (stereo not shown) [LIN-S]
EC50 [4]: 12 µM

CCCCC/C=C\C/C=C\C/C=C\C/C=C\CCCC(=O)NCC(=O)O [NAGly]
ΔV50 (mV) [1]: −25.5 mV

CCCCC/C=C\C/C=C\C/C=C\C/C=C\CCCC(=O)N[C@@H](CO)C(=O)O [ARA-S]
EC50 [5]: 9 µM
